Test results reported in patent US20180085386A1, “URIDINE MONOPHOSPHATE AND TRIPHOSPHATE DERIVATIVES, COMPOSITIONS AND METHODS OF USE” (Tufts University, priority 2016, published 2018).

How the values were obtained:
[1] = tested on: PSAPP mice; assay: Plaque load in cortex and hippocampus by amyloid beta immunostaining; format: in vivo, mouse
Experimental: PSB0474 was systemically administered to PSAPP mice via intraperitoneal injection for 2, 4 and 6 consecutive days. In one group, prior to evaluation and following to administration for 6 consecutive days, treatment was suspended for two weeks (6+2 weeks group). Brains were then fixed and plaque load was evaluated by immunostaining with the amyloid beta specific antibodies: β1-40 and β1-42. Representative images of plaque load in cortex and hippocampus from animals that received injections of PSB0474 according to the foregoing injection schedules are shown in FIGS. 1(A)-(D). […] Whereas, when administration of PSB0474 was stopped for 2 weeks following six consecutive days of treatment (denoted as the 6+2 weeks group), β1-40 staining rebounded; although to a level lower than observed in mice treated with saline as a vehicle control. […] FIGS. 2C-2F depict data obtained following administration of different dosages of PSB0474.
To generate these graphs showing plaque load, mice were euthanized, brain sections cut and antibodies directed against Aβ42 were used to disclose Aβ plaques. Images were acquired digitally and an algorithm was applied to threshold the image so that plaques were isolated from the background. The algorithm then calculated the percent area of the field of view occupied by the plaques.
Brain samples were collected for Abeta analysis with immunostaining. Brains samples were collected after transcardial perfusion with phosphate buffer and 4% paraformaldehyde. Floating brain sections (40 micron) were collected using a microtome. Immunostaining for […] and Aβ42 were performed according to previously established protocol. Images with DAB staining were collected with brightfield microscopy and analyzed with ImageJ Macro. All data analysis and statistics were performed in GraphPad Prism 6.0.
(§1) In this study, treatment of PSAPP mice commenced when the mice were pre-symptomatic. Specifically, treatment was initiated when the mice were approximately 3 months old. PSAPP mice were treated for 100 days with daily, intraperitoneal injections of 10 μg/kg of compound 5 or vehicle. Following treatment, mice were assessed in a fear conditioning task for memory formation. Subsequently, plaque burden in the mice was also evaluated. The data provided in Examples 16 and 17 is for 19 vehicle treated mice and 22 compound treated mice. The data provided for the vehicle-treated group is the average across those mice, and error bars depict the standard error (SEM). Similarly, the data provided for the compound-treated group is the average across those mice, and the error bars depict the SEM.
as §1, with “assessed for the following: concentration of circulating pro-inflammatory cytokines; amyloid beta load (e.g., plaque burden); and memory” for “assessed”, “formation.” for “formation. Subsequently, plaque burden in the mice was also evaluated.”, “Example 18” for “Examples 16 and 17”, “18” for “19”, “20” for “22”, “SEM. Mice were first evaluated in the fear conditioning task experiment. Subsequently, plasma was taken for multiplex cytokine analysis of circulating levels of cytokine in the plasma. Finally, plaque burden was assessed in the cortex and hippocampus of the mice.” for “SEM.”
In this study, treatment of PSAPP mice commenced after the mice were already symptomatic. Specifically, treatment was initiated when the mice were approximately 6 months old. […]

[2] = tested on: THP-1 cells; assay: Cytokine release from human THP-1 cells (multiplex analysis of culture medium); format: cell-based; conditions: FIG. 19
Experimental: THP-1 cells, a human cell line derived from monocytes, were treated in vitro with vehicle, the P2Y6 receptor antagonist MRS 2578, or compound 5, singly or in combination. THP-1 cells were seeded in 24 well plates at a density of 4×10^5 cells/well in culture medium for 24 hours. Thereafter, vehicle, compound 5, or MRS 2578 (singly or in combination) were added to the cultures for 24 hours. Subsequently the culture medium was aspirated and subjected to multiplex cytokine analysis. Data are presented as means+/−sem. MRS 2578 has a molecular weight of about 472 and is also described using CAS number 711019-86-2.

SMILES: O=c1ccn([C@@H]2O[C@H](CO)C(O)C2O)c(=O)n1Cc1noc2ccccc12 (stereo in doubt) [compound 5]
- plaque size ([1]; 10 μg/kg i.p. daily for 7 days from ~6 months, Example 20, FIG. 17(B)): decrease
- Amyloid beta accumulation in the cortex ([1]; 10 μg/kg i.p. daily for 7 days from ~6 months, using Aβ40, Example 20, FIG. 17(A) upper panel): decreased
- Amyloid beta accumulation in the hippocampus ([1]; 10 μg/kg i.p. daily for 7 days from ~6 months, using Aβ42, Example 20, FIG. 17(A) lower panel): decreased
- plaque burden ([1]; 10 μg/kg i.p. daily for 100 days from ~3 months of age, vs vehicle, Example 17, FIG. 9): reduced
- Amyloid beta accumulation in the cortex ([1]; 10 μg/kg i.p. daily for 100 days from ~3 months, vs vehicle, Example 19, FIG. 15(A)): decreased
- Amyloid beta accumulation in the hippocampus ([1]; 10 μg/kg i.p. daily for 100 days from ~3 months, vs vehicle, Example 19, FIG. 15(B)): decreased
- size distribution of remaining plaques ([1]; 10 μg/kg i.p. once per day for 7 days, PS1/APP mice 26 weeks): significantly reduced
- Aβ40 plaque burden ([1]; 10 μg/kg i.p. once per day for 7 days, PS1/APP mice 26 weeks, cortex, FIG. 6A): significantly reduced
- effect of compound 5 on release of IL-7 ([2]; co-treatment with MRS 2578): abrogated
- release of IL-7 into culture media ([2]; compound 5 10 nM, 24 hours, vs vehicle): decreased
